# Test results published in US20060246047A1, “Peptide wirh apoptosis-inhibiting activity” (priority 2003, published 2006).
# T1: Bak (Homo sapiens, UniProt Q16611)
# T1 construct: expressed in transfected cells; host or cells: HEK 293T
# T1 sequence (Q16611 1-211): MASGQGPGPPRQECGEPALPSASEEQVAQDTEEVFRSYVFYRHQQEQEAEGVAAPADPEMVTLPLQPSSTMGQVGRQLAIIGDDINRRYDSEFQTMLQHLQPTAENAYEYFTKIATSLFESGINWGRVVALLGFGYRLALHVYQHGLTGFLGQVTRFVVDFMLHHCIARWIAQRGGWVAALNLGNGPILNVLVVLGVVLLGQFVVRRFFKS
# What was measured:
# HeLa cells [1] = experiment: STS-induced apoptosis in Hela cells, modified TAT-ART peptides (Example 8); assay type: cell-based; settings: 100, 300 or 1000 nM, 0.2 μM STS, 24 hours
# Protocol: The modified TAT-ART1320 peptides used were TAT-ART1420 (SEQ ID NO: 25) and TAT-ART1320P13V (SEQ ID NO: 26), synthesized with a peptide synthesizer.
# Hela cells (1×10^5 cells) were seeded in 12-well plates and incubated for 24 hours. Subsequently, cells were pre-treated for 1 hour by adding TAT-ART1320 or its modified peptide at a final concentration of 100, 300, or 1000 nM, followed by the addition of 0.2 μM STS and incubation for 24 hours. Cells without the addition of TAT-ART1320 or STS, together with cells without the addition of TAT-ART1320, were prepared as controls. Following incubation, cell death was evaluated by the trypan blue exclusion method.
# Bax [2] = molecular target: T2, Bax (Homo sapiens, UniProt Q07812); experiment: Apoptosis-suppressive activity, summary statements without a stated test; assay type: cell-based; design: expressed in transfected cells; host or cells: HEK 293T; settings: summary statement
# Bax [3] = molecular target: T2, Bax; experiment: STS-induced mitochondrial translocation of Bax in COS7 cells, confocal microscopy; assay type: cell-based; design: expressed in transfected cells; settings: 1000 nM pretreatment 1 hour, COS7 with pCI-myc-Bax
# Protocol: It is considered that, in order for Bax to induce apoptosis, it is essential for Bax to localize to mitochondria. Thus, the effect of TAT-ARTI320 on STS-induced mitochondrial translocation of Bax was examined.
# COS7 cells (4×10^4 cells) were seeded in 12-well plates and incubated for 24 hours and then transfected with 1 μg of the pCI-myc-Bax gene. Subsequently, after further incubation for 23 hours, cells were pretreated for 1 hour with 1000 nM TAT-ART1320. Cells without TAT-ART1320 pretreatment were also prepared as controls. Further, […] of STS and 100 nM MitoTracker Orange (manufactured by Molecular Probes) were added and, after one hour, cells were fixed with 3% formaldehyde solution. Cells without the addition of STS were also prepared as controls.
# HEK 293T cells = experiment: STS-induced Bax-dependent apoptosis in HEK 293T cells, trypan blue exclusion; assay type: cell-based; settings: 0.5 μM STS, 24 hours
# Protocol: (§1) It is known that apoptosis induced by staurosporine (STS) is Bax-dependent. Thus, it was examined whether TAT-ART1320 can suppress STS-induced apoptosis.
# (§2) HEK 293T cells or HeLa cells, at 5×10^4 cells each, were seeded in 12-well plates and incubated for 24 hours. Subsequently, cells were pre-treated by adding TAT-ART1320 at a final concentration of 100, 300, or 1000 nM, followed by further incubation for 24 hours. Then STS was added to HEK 293T cells and HeLa cells at 0.5 μM and 0.2 μM, respectively, followed by incubation for 24 hours. Cells without the addition of TAT-ART1320 or STS, together with cells without the addition of TAT-ART1320, were prepared as controls. Following incubation, cell death was evaluated by the trypan blue exclusion method.
# Bax [4] = molecular target: T2, Bax; experiment: Apoptosis induced by overexpression of myc-Bax in HEK 293T cells, trypan blue exclusion; assay type: cell-based; design: expressed in transfected cells; host or cells: HEK 293T; settings: 100, 300 or 1000 nM, 24 hours
# Protocol: (§3) HEK 293T cells (1×10^5 cells) were seeded in 12-well plates and incubated for 24 hours. Subsequently, myc, myc-Bax, or myc-Bak was overexpressed within cells by introducing pCI-myc, pCI-myc-Bax, or pCI-myc-Bakplasmid respectively into HEK 293 T cells. After incubation for 17 hours, TAT-ART1320 was added at a final concentration of 100, 300, or 1000 nM, followed by further incubation for 24 hours. Cells without the addition of TAT-ARTI320 were used as controls. Following incubation, cell death was evaluated by the trypan blue exclusion method.
# [5] = system: brain ischemia model gerbils; experiment: Brain ischemia model, 4 min bilateral common carotid artery occlusion and reperfusion; assay type: in vivo, gerbil
# Protocol: Next, to confirm the effect of the peptide according to the present invention on apoptosis-induced diseases, such as neurodegenerative diseases, using a model of brain ischemia induced by a 4 min occlusion of the bilateral common carotid arteries in gerbils the influence of TAT-ART1320 ([…]) on the neurological symptom scores after reperfusion and on delayed neuronal death in hippocampus four days after reperfusion.
# Thirteen-week-old male gerbils (SPF, Japan SLC, Inc.) were kept over a week in a barrier system animal room with controlled temperature (23±2° C), humidity (55±15%), ventilation (at least 5 air changes/hour), and light (12 hour light period, 6:30 a.m. to 6:30 p.m.). The gerbils thus maintained, weighing 60 to 80 g, were used as test animals. Food and water were provided at libitum.
# Under ether anesthesia, test animals underwent a midline skin incision in the neck to expose the bilateral internal carotid arteries (the ether anesthesia was stopped on exposure of the bilateral internal carotid arteries), which were occluded bilaterally with artery forceps, to induce brain ischemia. Reperfusion was initiated by removing the artery forceps 4 min after occlusion and the skin was sutured, immediately followed by administration of TAT-ART1320 or saline. Subsequently, test animals were warmed under an infrared lamp until their activity was recovered.
# TAT-ART1320 was prepared for administration by dissolving 3 or 30 mg of TAT-ART1320 in 10 ml of saline. This solution was administered at a dose of 10 ml/kg BW. Immediately after reperfusion TAT-ART1320 was intravenously injected into the caudal vain of each animal at 3 mg/kg BW or 30 mg/kg BW, followed by another intravenous injection after 5 hours. (The animals (n=13) receiving TAT-ART1320 at 3 mg/kg BW and animals receiving TAT-ART1320 at 30 mg/kg BW were called the 3 mg/kg group and the 30 mg/kg group, respectively.) The next day, intravenous injection was switched to subcutaneous injection and the same doses of TAT-ART1320 were administered twice at intervals of 5 hours, followed by once-daily SC injection. Animals (n=13: control group) receiving only saline were used as controls.
# Immediately after reperfusion and subsequent administration of TAT-ART1320 or saline, observation of symptoms of the central nervous system (disturbance of consciousness, convulsions, suppression of motor responses, blepharoptosis) was started. […]
# The bilateral hippocampal regions were excised from the fixed brain and 4 μm paraffin sections (about 1.5 mm posterior from the bregma) were prepared from each hippocampus. […] Subsequently, the length of bilateral hippocampal CA1 regions was measured with an image analyzer (MacSCOPE). Further, the number of survived neurons in each section was counted under a microscope. […]
# HeLa cells [6] = experiment: STS-induced Bax-dependent apoptosis in HeLa cells, trypan blue exclusion; assay type: cell-based; settings: 0.2 μM STS, 24 hours
# Protocol: as §1, §2
# Bak = molecular target: T1, Bak; experiment: Apoptosis induced by overexpression of myc-Bak in HEK 293T cells, trypan blue exclusion; assay type: cell-based; settings: 100, 300 or 1000 nM, 24 hours
# Protocol: as §3
# Bax [7] = molecular target: T2, Bax; experiment: Bax-induced apoptosis in pCI-Bax-transfected HEK 293T cells with HTA1320 added, trypan blue exclusion; assay type: cell-based; design: expressed in transfected cells; host or cells: HEK 293T; settings: survival after 40 hours
# Protocol: It was examined whether or not HTAI320, prepared in Example 3, inhibits Bax-induced apoptosis-promoting activity. HEK 293T cells were plated at 1×10^5 cells per well on 12-well plastic dishes and incubated overnight. Subsequently, cells were transfected with pCI-Bax by lipofection using opti-MEM (manufactured by GibcoBRL) and Lipofectamine (manufactured by GibcoBRL). After five hours, the medium was changed and HTA1320 were added at various concentrations. Subsequently, the cell survival rate after 40 hours was evaluated by the trypan blue exclusion method. As a result, HTA1320 inhibited Bax-induced apoptosis-promoting activity.
# T2 sequence (Q07812 whole entry): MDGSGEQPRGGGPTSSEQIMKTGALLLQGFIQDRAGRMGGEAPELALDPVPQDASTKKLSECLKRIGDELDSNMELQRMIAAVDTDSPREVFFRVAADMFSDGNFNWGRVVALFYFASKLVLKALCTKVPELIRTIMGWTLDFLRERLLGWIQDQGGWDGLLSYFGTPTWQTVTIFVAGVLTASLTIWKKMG
molecule,measurement,setting,value
"SEQ ID NO: 1: peptide from threonine in the 14th position to methionine in the 20th position of the ART sequence (TSSEQIM; Inventor Imoto, Masaya Inventor Tabe, Hirokazu Inventor Tashiro, Etsu Inventor OHMORI, Yusuke; listed as Homo sapiens)",suppression of STS-induced apoptosis compared with TAT-ART1320 (SEQ ID NO: 2 peptide),HeLa cells [1],stronger suppressive activity
same,apoptosis-suppressive activity,Bax [2],stronger apoptosis- suppressive activity than the peptide (SEQ ID NO: 2)
SEQ ID NO: 2: peptide from proline in the 13th position to methionine in the 20th position of the ART sequence (PTSSEQIM; listed as Homo sapiens),STS-induced mitochondrial localization / translocation of Bax,Bax [3],effect of suppressing SIS-induced mitochondrial translocation of Bax
same,apoptosis-suppressive activity,Bax [2],strong apoptosis-suppressive activity
"TAT-ART1320: HIV-TAT sequence linked to ART positions 13 to 20, synthesized with a peptide synthesizer (YGRKKRRQRRRPTSSEQIM; TAT-ART1320)",concentrations suppressing STS-induced apoptosis,HEK 293T cells,1 to 100 nM
same,inhibition of apoptosis induced by overexpression of Bax,Bax [4],inhibits
same,change of neurological symptoms scores with dose,[5]; 3 mg/kg and 30 mg/kg groups,dose-dependent decrease
same,number of survived neurons per unit length in hippocampal CA1,"[5]; 30 mg/kg group, four days after reperfusion, control 15.4±5.2",74.5±23.1
same,neurological symptoms score,"[5]; 30 mg/kg group, i.v. then s.c., control 8.2±1.4, P<0.05",2.8±0.6
same,neuronal death in hippocampal CA1,"[5]; 3 and 30 mg/kg groups, four days after reperfusion",significantly suppresses neuronal death
same,concentrations suppressing STS-induced apoptosis,HeLa cells [6],100 to 1000 nM
same,STS-induced mitochondrial localization / translocation of Bax,Bax [3],Bax did not localize to mitochondria
same,inhibition of apoptosis induced by overexpression of Bak,Bak,cannot inhibit
"TAT-ART1420: modified TAT-ART1320 peptide, ART positions 14 to 20, synthesized with a peptide synthesizer (YGRKKRRQRRRTSSEQIM; TAT-ART1420)",suppression of STS-induced apoptosis compared with TAT-ART1320 (SEQ ID NO: 2 peptide),HeLa cells [1],equal to or greater than that of TAT-ART1320
VTSSEQIM (ART1320P13V) [SEQ ID NO: 7],suppression of STS-induced apoptosis compared with TAT-ART1320 (SEQ ID NO: 2 peptide),HeLa cells [1],stronger suppressive activity
"HTA1320: E. coli-expressed peptide of ART positions 13 to 20 with HIV-Tat sequence and His sequence (protein, His-Tat-ART13/20(HTA1320)) MRGSHHHHHHGMASMTGGQQMGRDLYDDDDKDRWIRPRDLQLVPWYGRKKRRQRRRPTSSEQIM",apoptosis-suppressive activity at low concentrations versus high concentrations,Bax [7]; low concentrations,almost equivalent to that at high concentrations
same,inhibition of Bax-induced apoptosis-promoting activity,Bax [7]; various concentrations,inhibited
